Patent US4691046A, “Butanedioic acid mono [(2-dimethylamino] ethyl ester)succinate” (Institut Organicheskoi Khimii Ordena Lenina I Ordena …, priority 1986, dated 1987)

What was measured:
[1] = Stresso-protective activity, motion stress in slowly rotating drum for 48 hours; type: in vivo, rats; conditions: 48 h motion stress, 10 mg/kg i.p. four times (invention, ester)
Procedure: In evaluation of the stresso-protective activity of the compound according to the present invention as a model use was made of a procedure of depriving rats of sleep, meals and water in a slowly rotating drum (at the speed of 0.2 km/h).
The experiments were carried out on 42 nondescript male rats. In parallel experiments the antistress activity of butanedioic acid mono[(2-dimethylamino)ethyl ester] was studied; as the reference prepartion use was made of the prior art tranquilizer--diazepam which was used in the experiments for this very indication.
4 groups of animals were tested in parallel. Groups I and II were placed for 48 hours into a slowly rotating drum, groups III and IV were under normal conditions and were deprived only of meals and water. The compound according to the present invention and butanedioic acid mono[(2-dimethylamino)ethyl ester] were administered intraperitoneally in the dose of 10 mg/kg four times (2 times a day) in the volume of 2.5 ml/kg under the conditions of motion stress (Group I of the animals) and under normal conditions (Group III of animals). The control animals--Group II (active control) and Group IV (passive control) were given a physiological solution. The efficiency of the compound according to the present invention, of butanedioic acid mono[(2-dimethylamino)ethyl ester] and of diazepam was estimated on the basis of a set of characteristics showing the functional activity of the central nervous system, physical fitness and development of basic symptoms of the stress-syndrome.
The residence of control rats in a slowly-rotating drum over 48 hours results in a noticeable deterioration of all the studied characteristics, especially those of higher nervous activity (learning) and development of stress-syndrome. The state of control animals was characterized by lowering of the overall behavioural activity as determined by the "open-field" test (37±15%) with reference to the passive control level, by a reduction in the speed of development of a conventional avoiding response in an aqueous labyrinth (58±15%), by an increase in the number of mistakes during the teaching time (175±25%), lowering of the ultimate physical endurance as determined by the swimming-with-load test (the load is equal to 10% by mass of the body (70±17%), adrenal hypertrophy (146±16%), thymus atrophy (49±9%) and formation of ulcers on the stomach mucous membrane (5.25±1.0%).

[2] = Survival of mice on acute cooling; type: in vivo; conditions: i.p. 1 hour before, 80 mg/kg (invention), 64 mg/kg (ester), 17 mg/kg (sodium succinate)
Procedure: The activity of the compound according to the present invention was studied in experiments on animals. The effectivemess of the compound according to the present invention was studied for resistance against an acute cold effect in comparison with conventional preparations such as butanedioic acid mono[(2-dimethylamino)ethyl ester] and sodium succinate.
The experiments were carried out on male mice (tetrahybdrids) with a body mass of 18-20 g which were placed into a cold chamber at a temperature of -15t to -17° C. in separate plastic cages slightly limiting their activity. […] The preparations were administered intraperiotoneally 1 hour before the cold effect the control animals were administered with a physiological solution.

SMILES | Weight coefficient of thymus ([1]; control 0.95 ± 0.18) | Weight coefficient of adrenal glands ([1]; control 1.246 ± 0.028) | Number of attempts till reaching the learning criterion (water labyrinth) ([1]; control 4.75 ± 0.5) | Number of ulcers on the stomach mucous membrane ([1]; control 5.25 ± 1.0) | Duration of swimming ([1]; control 244 ± 26) [s] | Survival, %, 1 hour ([2]; 1 hour of cold at -15 to -17° C.) [%] | Survival, %, 2 hours ([2]; 2 hours of cold at -15 to -17° C.) [%] | Survival, %, 3 hours ([2]; 3 hours of cold at -15 to -17° C.) [%] | Survival, %, 4 hours ([2]; 4 hours of cold at -15 to -17° C.) [%] | Survival, %, 5 hours ([2]; 5 hours of cold at -15 to -17° C.) [%] | Survival, %, 6 hours ([2]; 6 hours of cold at -15 to -17° C.) [%]
CN1C(=O)CN=C(c2ccccc2)c2cc(Cl)ccc21 [Diazepam, diazepam] | 2.26 g/kg of the initial body mass | 1.010 g/kg of the initial body mass | 7.25 | 1.0 | 210 | – | – | – | – | – | –
O=C(O)CCC(=O)O [Sodium succinate, sodium succinate] | – | – | – | – | – | 100 | 80 | 70 | 40 | 10 | 0
